Assay results taken from patent publication US7067112B2, “Cephaibols: novel antiparasitics from Acremonium tubakii, process for their production, and use thereof” (Sanofi-Aventis Deutschland GmbH, priority 1999, dated 2006).
Values after ≈ are worked out from the molar mass of the structure shown. Square brackets hold non-standard residues; d marks the D form. Peptide text beside a SMILES is read from it. Hyp = O=C(O)[CH]1C[CH](O)CN1; Phe(ol) = N[CH](CO)Cc1ccccc1; Iva = CC[C](C)(N)C(=O)O; Aib = CC(C)(N)C(=O)O

How the values were obtained:
[1] = test system: Enterococcus faecalis ATCC 29212; assay: minimal inhibitory concentration (MIC); format: cell-based
[2] = test system: Pasteurella multocida P 48; assay: minimal inhibitory concentration (MIC); format: cell-based
[3] = test system: Escherichia coli ATCC 25922; assay: minimal inhibitory concentration (MIC); format: cell-based
[4] = test system: Escherichia coli 1507 E; assay: minimal inhibitory concentration (MIC); format: cell-based
[5] = test system: Pasteurella haemolytica P 53; assay: minimal inhibitory concentration (MIC); format: cell-based
[6] = test system: Mycoplasma mycoides L
[7] = test system: Pseudomonas aeruginosa ATCC 27853; assay: minimal inhibitory concentration (MIC); format: cell-based
[8] = test system: Bordetella bronchiseptica 10; assay: minimal inhibitory concentration (MIC); format: cell-based
[9] = test system: Pseudomonas aeruginosa 1771; assay: minimal inhibitory concentration (MIC); format: cell-based
[10] = test system: Enterobacter cloacae 1321 E; assay: minimal inhibitory concentration (MIC); format: cell-based
[11] = test system: Bordetella bronchiseptica ATCC 4617; assay: minimal inhibitory concentration (MIC); format: cell-based
[12] = solubility (physicochemical properties)
Text: (§1) The physicochemical and spectroscopic properties of the cephaibols according to the invention can be summarized as follows: […]

[13] = test system: Staphylococcus aureus 285; assay: minimal inhibitory concentration (MIC); format: cell-based
[14] = test system: Klebsiella oxytoca 1522 E; assay: minimal inhibitory concentration (MIC); format: cell-based
[15] = test system: Pseudomonas aeruginosa 1771 M; assay: minimal inhibitory concentration (MIC); format: cell-based
[16] = test system: Pseudomonas aeruginosa 77/2; assay: minimal inhibitory concentration (MIC); format: cell-based
[17] = test system: cat flea=Ctenocephalides felis; assay: flea larval test (action on ectoparasites); format: in vivo; settings: depending on the dose (2000, 1000, 500, 250 ppm etc. in blood meal), in comparison with the solvent control
Experimental: The action against ectoparasites was checked in the flea larval test (cat flea=Ctenocephalides felis). 5 mg of cephaibol A were dissolved in 0.5 ml of acetone and mixed into 500 mg of blood meal (defibrinated sheep blood). After the solvent had evaporated, 2 g of quartz sand were mixed with medicated blood meal such that preparation concentrations of 2000, 1000, 500, 250 ppm etc. resulted. 15 flea eggs per medicated sample or solvent control were added to the mixture of medicated blood meal and quartz sand, which was then incubated at 37° C. and high atmospheric humidity. The larval development, pupation and development to the adult stage were checked at an interval of 3–5 days and the mortality rates were documented.

[18] = test system: Enterococcus hirae ATCC 10541; assay: minimal inhibitory concentration (MIC); format: cell-based
[19] = test system: Staphylococcus aureus ATCC 29213; assay: minimal inhibitory concentration (MIC); format: cell-based
[20] = test system: Mycoplasma mycoides LC
[21] = test system: larvae of the chicken roundworm Ascaridia galli; assay: larval development test (in vitro) for anthelmintic action; format: cell-based; settings: A. galli L2 larvae, 5 days medication
Experimental: For the testing of the action of the cephaibols on helminths, an in vitro test (larval development test) was carried out with larvae of the chicken roundworm Ascaridia galli. Embryonate eggs of A. galli were surface-sterilized by treatment with 5% strength sodium hypochlorite solution and, after removal of this solution, mechanically opened by means of rotating glass beads (5 mm). The hatched L2 larvae were enriched via larval enrichment processes, taken up in nutrient medium and incubated at 41° C. and 10% CO2.
48 hours after hatching, the larvae were incubated (41° C., 10% CO2) in microtiter plates (96 well) for 5 days with medicated medium (200 μl) in the concentrations 200, 100, 50 . . . 0.1 μg/ml. During the 5-day incubation period, motility, morphology, and vitality were checked microscopically and documented on a daily basis. After medication, the larval culture was incubated for 48 hours with Neutral Red in a concentration of 0.16%; after removal of the Neutral Red by change of medium, the enrichment of the vital dye in the intestine of the larvae was assessed as an index for active food intake and thus as proof of the vitality. The medication of the larvae with cephaibol A in the concentrations 200, 100, 50, and 25 μg/ml led to 100% mortality; at a concentration of 12.5 μg/ml and 6.25 μg/ml, the mortality was 92% and 20% respectively.

[22] = test system: Pasteurella multocida 3;tox.pos.; assay: minimal inhibitory concentration (MIC); format: cell-based
[23] = test system: Klebsiella aerogenes 1082 E; assay: minimal inhibitory concentration (MIC); format: cell-based
[24] = test system: Bordetella bronchiseptica 9; assay: minimal inhibitory concentration (MIC); format: cell-based
[25] = test system: Pasteurella haemolytica 7; assay: minimal inhibitory concentration (MIC); format: cell-based
[26] = test system: Pseudomonas aeruginosa ATCC 9027; assay: minimal inhibitory concentration (MIC); format: cell-based
[27] = test system: Mycoplasma gallisepticum; assay: minimal inhibitory concentration (MIC); format: cell-based
[28] = test system: Escherichia coli DC 0; assay: minimal inhibitory concentration (MIC); format: cell-based
[29] = test system: Streptococcus pyogenes 308 A; assay: minimal inhibitory concentration (MIC); format: cell-based
[30] = test system: Escherichia coli DC 2; assay: minimal inhibitory concentration (MIC); format: cell-based
[31] = test system: Enterobacter cloacae P 99; assay: minimal inhibitory concentration (MIC); format: cell-based
[32] = stability (physicochemical properties); settings: in neutral, mildly acidic and mildly alkaline medium
Text: as §1

[33] = test system: Escherichia coli TEM; assay: minimal inhibitory concentration (MIC); format: cell-based
[34] = test system: Streptococcus pyogenes 77 A; assay: minimal inhibitory concentration (MIC); format: cell-based

CCC(C)(NC(=O)C(CC(C)C)NC(=O)CNC(=O)C(C)(C)NC(=O)C(C)(C)NC(=O)C(C)(C)NC(=O)C(C)(C)NC(=O)C(Cc1ccccc1)NC(C)=O)C(=O)NC(C)(C)C(=O)N1CC(O)CC1C(=O)NC(CCC(N)=O)C(=O)NC(C)(CC)C(=O)N1CC(O)CC1C(=O)NC(C)(C)C(=O)N1CCCC1C(=O)NC(CO)Cc1ccccc1 (stereo not drawn) [Cephaibol A, AcPhe-Aib-Aib-Aib-Aib-Gly-Leu-Iva-Aib-Hyp-Gln-Iva-Hyp-Aib-Pro-Phe-ol] (Ac-F[Aib][Aib][Aib][Aib]GL[Iva][Aib][Hyp]Q[Iva][Hyp][Aib]P[Phe(ol)]; configuration not given here)
MIC [1]: 64 µg/mL (≈ 38.3 µM) | MIC [2]: >128 µg/mL | MIC [3]: >128 µg/mL | MIC [4]: >128 µg/mL | MIC [5]: >128 µg/mL | MIC [6]: 64 µg/mL (≈ 38.3 µM) | MIC [7]: >128 µg/mL | MIC [8]: >128 µg/mL | MIC [9]: >128 µg/mL | MIC [10]: >128 µg/mL | MIC [11]: >128 µg/mL | solubility in polar organic solvents ([12]; polar organic solvents): soluble | solubility in water ([12]; water): only slightly soluble | MIC [13]: 8 µg/mL (≈ 4.79 µM) | MIC [14]: >128 µg/mL | MIC [15]: >128 µg/mL | MIC [16]: >128 µg/mL | larvicidal action [17]: > 90% | MIC [18]: 64 µg/mL (≈ 38.3 µM) | MIC [19]: 16 µg/mL (≈ 9.58 µM) | MIC [20]: 128 µg/mL (≈ 76.6 µM) | mortality ([21]; 6.25 μg/ml): 20% | mortality ([21]; 12.5 μg/ml): 92% | mortality ([21]; 25 μg/ml): 100% | mortality ([21]; 50 μg/ml): 100% | mortality ([21]; 100 μg/ml): 100% | mortality ([21]; 200 μg/ml): 100% | MIC [22]: >128 µg/mL | MIC [23]: >128 µg/mL | MIC [24]: >128 µg/mL | MIC [25]: >128 µg/mL | MIC [26]: >128 µg/mL | MIC [27]: 64 µg/mL (≈ 38.3 µM) | MIC [28]: >128 µg/mL | MIC [29]: 32 µg/mL (≈ 19.2 µM) | MIC [30]: >128 µg/mL | MIC [31]: >128 µg/mL | stability [32]: stable | MIC [33]: >128 µg/mL | MIC [34]: >128 µg/mL
